Measured values published in patent US4889871A, “Alkoxy-substituted dihydrobenzopyran-2-carboxylate derivatives” (G. D. Searle & Co., priority 1988, dated 1989).
pIC50: −log10 of the molar value.

System: human neutrophils
Test: Human neutrophil degranulation assay (LTB4-induced, myeloperoxidase release)
Format: cell-based
Conditions: Table 1, LTB4 (5×10^-8 M)
Method: Neutrophils were purified from venous blood of normal human donors using standard techniques of dextran sedimentation, centrifugation on Ficoll-paque® (Pharmacia) or Histopaque® sterile solution (Sigma) and hypotonic lysis of erythrocytes (Boyum, A., Isolation of Leukocytes From Human Blood: Further Observations. Scand. J. Lab. Clin. Invest., 21 (Suppl. 97): 31, 1968). The purity of isolated neutrophils was >95%.
Neutrophil degranulation was determined by measuring the release of myeloperoxidase activity into the incubation medium. Neutrophils (3×10^6) in 1 ml HBSS solution were preincubated with cytochalasin B (5 μg) at 37° C. for 5 minutes, followed by preincubation with test compounds for 7 minutes. Neutrophils were then incubated for 2 to 20 minutes with either LTB4 (5×10^-8 M) or the chemotactic peptide f-met-leu-phe (5×10^-6 M) to induce degranulation. Following incubation, samples were centrifuged and myeloperoxidase was extracted from the cell pellets by sonication in phosphate buffer containing 0.4% Triton X-100. Triton X-100 was also added to the supernatants to a concentration of 0.4%. The supernatants and the pellet - extracts were then assayed spectrophotometrically for myeloperoxidase activity by determining the rate of decomposition of H2 O2 with o-dianisidine as hydrogen donor as described by Renlund, et al. (Renlund, D. G., MacFarlane, J. L., Christensen, R. D., Lynch, R. E., and Rothstein, G., A Quantitative And Sensitive Method For Measurement Of Myeloperoxidase, Clinical Research 28:75A, 1980). Myeloperoxidase activity released into the supernatant was expressed as the percent of the average total activity (pellet plus supernatant).

In the case of `CCCc1c(OCCCOc2ccc(C(C)=O)c(OC)c2CCC)ccc2c1OC(C(=O)O)CC2` (stereo not shown) [Example 1, 7-[3-(4-acetyl-3-methoxy-2-propylphenoxy)propoxy]-3,4-dihydro-8-propyl-2H-1-benzopyran-2-carboxylic acid], the pIC50 was 5.82.
